Values of other authors, collected in PubChem BioAssay AID1259409 (Chemical Carcinogenesis Research Information System (CCRIS), 2018).

Test system: rodent chemically induced tumor inhibition, incidence and multiplicity
Assay: CCRIS tumor inhibitor studies
Settings: Route [Inhibitor]: ORAL, Promoter: NONE USED
Description: The CCRIS database contains chemical records with carcinogenicity, mutagenicity, tumor promotion, and tumor inhibition test results. It was developed by the National Cancer Institute (NCI). Data are derived from studies cited in primary journals, current awareness tools, NCI reports, and other sources. Test results have been reviewed by experts in carcinogenesis and mutagenesis.
CCRIS provides historical information from the years 1985 - 2011. It is no longer updated.
This is an archive assay for CCRIS tumor inhibitor studies.

NCC[Se][Se]CCN
tumour outcome (control, treated, inhibition, significance) (Carcinogen: 7,12-DIMETHYLBENZ[A]ANTHRACENE, 57-97-6, Dose [Inhibitor]: 0, 0.000025 MOL/KG DIET BEGINNING 2 WK PRIOR TO CARCINOGEN AND CONTINUED FOR STUDY DURATION (STUDY DURATION: 25 WK), Species: RAT, Strain/Sex: CD-1/FEMALE, Target Tissue: Type of Lesion: MAMMARY GLAND: ADENOCARCINOMA, Dose [Carcinogen]: 10 MG ONCE): 18/25 (72%), 14/25 (56%), 22%, not significant | tumour outcome (control, treated, inhibition, significance) (Carcinogen: 7,12-DIMETHYLBENZ[A]ANTHRACENE, 57-97-6, Dose [Inhibitor]: 0, 0.00004 MOL/KG DIET BEGINNING 2 WK PRIOR TO CARCINOGEN AND CONTINUED FOR STUDY DURATION (STUDY DURATION: 25 WK), Species: RAT, Strain/Sex: CD-1/FEMALE, Target Tissue: Type of Lesion: MAMMARY GLAND: ADENOCARCINOMA, Dose [Carcinogen]: 10 MG ONCE): 18/25 (72%), 11/25 (44%), 39%, p<0.05

CC(=O)Nc1ccc(O)cc1
tumour outcome (control, treated, inhibition, significance) (Carcinogen: 4-(METHYLNITROSAMINO)-1-(3-PYRIDYL)-1-BUTANONE, 64091-91-4, Dose [Inhibitor]: 0, 1520 MMOL/KG BW/D IN DIET FOR DURATION OF STUDY BEGINNING 2 WK PRIOR TO CARCINOGEN TREATMENT (STUDY DURATION: 25 WK), Species: MOUSE, Strain/Sex: STRAIN-A/FEMALE, Target Tissue: Type of Lesion: LUNG:TUMOR, Dose [Carcinogen]: 2.2 MMOL/KG BW (TOTAL DOSE) ADMINISTERED IN DRINKING WATER FOR 7 WK): 29/29 (100%), 25/25 (100%), 0%, not significant | outcome (Carcinogen: N-ETHYL-N-HYDROXYETHYLNITROSAMINE, 13147-25-6, Dose [Inhibitor]: 1.3% IN DIET BEGINNING 1 WK AFTER LAST CARCINOGEN TREATMENT AND CONTINUING THROUGH DURATION OF STUDY (STUDY DURATION: 32, Species: RAT, Strain/Sex: F344/MALE, Target Tissue: Type of Lesion: KIDNEY: ADENOCARCINOMA, Dose [Carcinogen]: 0.1% IN DRINKING WATER FOR 2 WK AT BEGINNING OF STUDY): 0/23 (0%), 1/23 (4%), not significant | tumour outcome (control, treated, inhibition, significance) (Carcinogen: N-ETHYL-N-HYDROXYETHYLNITROSAMINE, 13147-25-6, Dose [Inhibitor]: 1.3% IN DIET BEGINNING 1 WK AFTER LAST CARCINOGEN TREATMENT AND CONTINUING THROUGH DURATION OF STUDY (STUDY DURATION: 32, Species: RAT, Strain/Sex: F344/MALE, Target Tissue: Type of Lesion: KIDNEY: ADENOMA, Dose [Carcinogen]: 0.1% IN DRINKING WATER FOR 2 WK AT BEGINNING OF STUDY): 5/23 (22%), 15/27 (56%), -154%, p<0.01 | tumour outcome (control, treated, inhibition, significance) (Carcinogen: N-ETHYL-N-HYDROXYETHYLNITROSAMINE, 13147-25-6, Dose [Inhibitor]: 1.3% IN DIET BEGINNING 1 WK AFTER LAST CARCINOGEN TREATMENT AND CONTINUING THROUGH DURATION OF STUDY (STUDY DURATION: 32, Species: RAT, Strain/Sex: F344/MALE, Target Tissue: Type of Lesion: LIVER: HEPATOCELLULAR CARCINOMA, Dose [Carcinogen]: 0.1% IN DRINKING WATER FOR 2 WK AT BEGINNING OF STUDY): 11/23 (48%), 3/27 (11%), 77%, p<0.05

COc1ccc([Se])cc1
tumour outcome (control, treated, inhibition, significance) (Carcinogen: AZOXYMETHANE, 25843-45-2, Dose [Inhibitor]: 0, 50 PPM IN HIGH-FAT DIET BEGINNING 2 WK PRIOR TO CARCINOGEN AND CONTINUING UNTIL 2 WK POST CARCINOGEN (STUDY DURATION:, Species: RAT, Strain/Sex: F344/FEMALE, Target Tissue: Type of Lesion: COLON: ADENOMA, ADENOCARCINOMA, Dose [Carcinogen]: 15 MG/KG IN NORMAL SALINE 1/WK FOR 3 WK): 27/29 (93%), 15/31 (48%), 48%, p<0.05 | tumour outcome (control, treated, inhibition, significance) (Carcinogen: AZOXYMETHANE, 25843-45-2, Dose [Inhibitor]: 0, 50 PPM IN HIGH-FAT DIET BEGINNING 2 WK PRIOR TO CARCINOGEN AND CONTINUING UNTIL 2 WK POST CARCINOGEN (STUDY DURATION:, Species: RAT, Strain/Sex: F344/FEMALE, Target Tissue: Type of Lesion: KIDNEY: ADENOMA, ADENOCARCINOMA, NEPHROBLASTOMA, Dose [Carcinogen]: 15 MG/KG IN NORMAL SALINE 1/WK FOR 3 WK): 15/29 (52%), 8/31 (26%), 50%, p<.05 | tumour outcome (control, treated, inhibition, significance) (Carcinogen: AZOXYMETHANE, 25843-45-2, Dose [Inhibitor]: 0, 50 PPM IN HIGH-FAT DIET BEGINNING 2 WK PRIOR TO CARCINOGEN AND CONTINUING UNTIL 2 WK POST CARCINOGEN (STUDY DURATION:, Species: RAT, Strain/Sex: F344/FEMALE, Target Tissue: Type of Lesion: SMALL INTESTINE: ADENOMA, ADENOCARCINOMA, Dose [Carcinogen]: 15 MG/KG IN NORMAL SALINE 1/WK FOR 3 WK): 3/29 (10%), 5/31 (16%), -60%, not significant
